Converted amounts (≈) assume the structure as drawn.

In series [1] the test system is MC3T3-E1 cells. Briefly: Alkaline phosphatase (ALP) activity of osteoblasts. The series is classed as cell-based. The conditions noted are these: 7 days; for ALP activity (in words): 5 μg/ml; for activity at 5 µg/mL: Mus musculus, 168 h, compound 5 μg/ml, relative to negative control (100). Here is the method:
After removing the medium, α-MEM supplemented with β-glycerophosphate and ascorbic acid were added thereto as a differentiation-inducing agent for osteoblasts. Each compound of Example 1 was added to the culture medium in the final concentration of 5 μg/ml. The plate containing the cells was cultured for 7 days. 100 μl of a cell lysis buffer (Sigma, Catalog number: MCL1) was added to the cells, which were then incubated at 37° C. for 30 minutes. The resulting mixture (50 μl) was reacted with p-nitrophenyl phosphate as a substrate in a 0.1N glycine-NaOH buffer (pH 9.8), at 37° C. for 30 minutes. Each amount of p-nitrophenol released from the substrate was quantified by measuring an absorbance at 405 nm using an ELISA reader (Bio-Tek instrument). […] The alkaline phosphatase activities were calculated by obtaining relative absorbance differences through comparing with a negative control (no treatment).

Series [2] deals with MC3T3-E1 cells. Put plainly: In-vitro bone nodules of osteoblasts (calcium accumulation). The series is classed as cell-based. The conditions noted are these: 27 days; for Calcium accumulation in the cells (in words): 5 μg/ml; for activity at 5 µg/mL: Mus musculus, 648 h, compound 5 μg/ml, relative to negative control (100). On the procedure: MC3T3-E1 cells (RIKEN Cell Bank, Japan) (2×10^3 cells per well) as an osteoblast cell line were placed on each well of a 24-well plate and then cultured for 24 hours. The medium was changed with α-MEM supplemented with β-glycerophosphate and ascorbic acid as a differentiation-inducing agent for osteoblasts. Each compound of Example 1 was added to the culture medium in the final concentration of 5 μg/ml. The plate containing the cells was cultured for 27 days while changing the medium every three days or every four days. […] No treatment was made to the negative control. In order to quantify the amount of calcium accumulated in the cells, the cells were washed with a biological saline, and then calcium (Ca) was extracted with a 0.5N HCl solution for 6 hours on an agitator. The extracted solution (100 μl) was reacted with a Calcium Reagent (Sigma, USA) at room temperature for 5 minutes. […] The amount of calcium accumulated in the cells was calculated by obtaining relative absorbance differences through comparing with a negative control (no treatment).

Series [3] relates to mandiblar molars transplanted into the kidney of female mouse (C57BL/6). Put plainly: Alveolar bone formation activity, compound-soaked collagen bead in mandiblar molar transplanted into mouse kidney. The series is classed as in vivo. The conditions noted are these: for response vs control in vivo at 1000 µg/mL: 504 h, collagen bead dipped in 1 mg/ml solution (1-2 μg compound), molar transplanted into mouse kidney, after 3 weeks, stained area vs negative control (100%); for Alveolar bone formation activity (in words): mouse kidney transplant of molar with compound bead, 3 weeks. Here is the method: Each compound of Example 1 was dissolved in a sterile biological saline to obtain a solution having a concentration of 1 mg/ml. Collagen bead (diameter: 1×2 mm, Gibco) used as a bone-grafting material was dipped into each solution at 37° C. for 45 minutes. Each resulting wet bead includes about 1-2 μl of the solution, and therefore 1-2 μg of each compound. Mandiblar molars before tooth-root formation were isolated from mice. The wet bead was inserted in the center of dental pulp of each isolated mandiblar molar, using tweezers. The resulting mandiblar molars were transplanted into the kidney of female mouse (C57BL/6). After 3 weeks, the growing molar teeth were fixed with a formalin solution and then stained with a Morse's solution. The stained sites were visualized under a microscope (Olympus IX71) and then the area was measured with an imageWarp software (London, England). The effects of the compounds on alveolar bone formation were evaluated by comparing with the negative control (100%).

Series [4] is described as follows: Cytotoxicity test (MTT). The conditions noted are these: mouse, L929 cells.
Protocol: (§1) In order to evaluate the cytotoxicities of the compounds designed in Example 1, L929 cells (RIKEN Cell Bank, Japan) (1×10^4 cells per well) were placed on each well of a 96-well plate and then cultured for 12 hours. The cells were treated with each compound in predetermined concentrations and then cultured for 48 hours. After removing the medium, a MTT (3-(4,5-dimethylthiazol-2-yl)-2,5-diphenyltetrazolium bromide) solution (100 μl per well) was added to the cells, which were then incubated for 4 hours. After removing the supernatant, each well was treated with a DMSO solution (100 μl per well) and then incubated at room temperature for 10 minutes for extraction. An absorbance at 550 nm was measured with an ELISA reader (Bio-Tek instrument). The CC50 (Cytotoxic Concentration 50%) values were determined by comparing with a negative control (no treatment).
Series [5] can be described thus: in vitro. The conditions noted are these: mouse.
Protocol: as §1

Turning to `CCOC(=O)c1cc(O)ccc1O` [NP35, ethyl 2,5-dihydroxybenzoate], in series [1], the “ALP activity (in words)” value was “most excellent ALP activities” and the activity at 5 µg/mL turned out to be 560%. In series [2], the “Calcium accumulation in the cells (in words)” value is “most excellent calcium accumulation in the cells” and the activity at 5 µg/mL came to 580%. In series [3], the response vs control in vivo at 1000 µg/mL was determined as 450% and the “Alveolar bone formation activity (in words)” value is recorded as “most excellent alveolar bone formation activities”. The compound further returned a CC50 at 48 h in series [4] of 150 µg/mL (≈ 823 µM).

In the case of `CCOC(=O)c1ccc(O)cc1O` [NP33, ethyl 2,4-dihydroxybenzoate], in series [1], the “ALP activity (in words)” value is “most excellent ALP activities” and the activity at 5 µg/mL was 430%. Besides, in series [2], the “Calcium accumulation in the cells (in words)” value is reported as “most excellent calcium accumulation in the cells” and the activity at 5 µg/mL amounted to 420%. Moreover, in series [3], the response vs control in vivo at 1000 µg/mL worked out at 300% and the “Alveolar bone formation activity (in words)” value is reported as “most excellent alveolar bone formation activities”. The compound further registered a CC50 at 48 h in series [4] of 100 µg/mL (≈ 549 µM).

For `O=C(O)c1cc(O)ccc1O` [NP23, 2,5-dihydroxybenzoic acid], the figures for the activity at 5 µg/mL in series [1] and in series [2] were 152% and 163%, respectively. In series [3], the response vs control in vivo at 1000 µg/mL stood at 119%. Moreover, the CC50 at 48 h in series [4] is 200 µg/mL (≈ 1300 µM).

Consider `CCOC(=O)c1cc(O)cc(O)c1` [NP37, ethyl 3,5-dihydroxybenzoate], for which the activity at 5 µg/mL was 153% in series [1] and 159% in series [2]. The response vs control in vivo at 1000 µg/mL in series [3] is 122%. Moreover, the CC50 at 48 h in series [4] was determined as 150 µg/mL (≈ 823 µM).

`CCOC(=O)c1ccc(O)c(O)c1` [NP31, ethyl 3,4-dihydroxybenzoate]: the activity at 5 µg/mL is 200% in series [1] and 180% in series [2]. In series [3], this compound showed a response vs control in vivo at 1000 µg/mL of 150%. This compound returned a CC50 at 48 h in series [4] of 100 µg/mL (≈ 549 µM).

As to `CCOC(=O)c1c(O)cccc1O` [NP36, ethyl 2,6-dihydroxybenzoate], the activity at 5 µg/mL in series [1] stood at 157%; in series [2], 160%. The compound further had a response vs control in vivo at 1000 µg/mL in series [3] of 121%. The compound also yielded a CC50 at 48 h in series [4] of 200 µg/mL (≈ 1100 µM).

For the compound `O=C(O)c1cc(O)cc(O)c1` [NP32, 3,5-dihydroxybenzoic acid], the activity at 5 µg/mL amounted to 155% in series [1] and 163% in series [2]. Further, the response vs control in vivo at 1000 µg/mL in series [3] was determined as 123%. The same compound had a CC50 at 48 h in series [4] of 150 µg/mL (≈ 973 µM).

In the case of `O=C(O)c1ccc(O)cc1O` [NP22, 2,4-dihydroxybenzoic acid], the results for the activity at 5 µg/mL in series [1] and in series [2] were 153% and 159%, respectively. In series [3], this compound yielded a response vs control in vivo at 1000 µg/mL of 121%. The CC50 at 48 h in series [5] was found to be 150 µg/mL (≈ 973 µM).

As to `O=C(O)c1cccc(O)c1O` [NP21, 2,3-dihydroxybenzoic acid], the activity at 5 µg/mL in series [1] is 147%; in series [2] it was 132%. Besides, the response vs control in vivo at 1000 µg/mL in series [3] came out at 110%. For the same compound, the CC50 at 48 h in series [4] worked out at 150 µg/mL (≈ 973 µM).

As for `COC(=O)c1ccc(O)cc1O` [NP34, methyl 2,4-dihydroxybenzoate], the activity at 5 µg/mL in series [1] is 149%; in series [2], 158%. The compound also returned a response vs control in vivo at 1000 µg/mL in series [3] of 130%. Besides, the CC50 at 48 h in series [4] came out at 150 µg/mL (≈ 892 µM).

The values are drawn from patent US8871749B2, “Bone-transplant or bone-filling composition comprising a dihydroxybenzoic acid derivative” (Cellsafe Co., Ltd., priority 2010, dated 2014).
